Consider three compounds from article PMC8952293, “A Histone Deacetylase (HDAC) Inhibitor with Pleiotropic In Vitro Anti-Toxoplasma and Anti-Plasmodium Activities Controls Acute and Chronic Toxoplasma Infection in Mice” (International Journal of Molecular Sciences, 2022).

The nature of data set [1]: SPECT/CT imaging of the iodine-125 radiotracer in infected mice. Type of data set: in vivo, mouse. The method, then:
(§1) An isotopic exchange was performed to obtain the radiolabeled iodinated JF363. Briefly, 2 mg of the iodinated molecule was incubated in acetone with 3 mg of cold Na127I and 55.5 MBq of radioactive Na125I (PerkinElmer) for 1 h at 95 °C in a heat block. After evaporation of acetone, the radiotracer was solubilized in corn oil; 5% DMSO was also added to mimic the previous conditions. Quality controls were performed by TLC.
Three female CD1 mice (31.7 ± 1.3 g; Janvier Labs, Le Genest-Saint-Isle, France) and two female mice infected with T. gondii obtained as previously described (19.5 ± 2.1 g) were studied. The previous study gave the radiotracer by oral gavage (administered dose: 0.73 ± 0.25 MBq/g). Before imaging, mice were anesthetized using isoflurane (2% in a mixture of air: O2) and positioned in a thermostatic bed. Whole-body single-photon emission computerized tomography/computed tomography (SPECT/CT) acquisitions were performed 0.5, 3.5, and 24 h after injection using a dedicated system (nanoSPECT-CT; Mediso, Budapest, Hungary). First, CT and SPECT acquisitions were reconstructed and fused using Nucline software (Mediso, Budapest, Hungary). This fusion allowed drawing a volume of interest (VOI in cm^3) on selected/visible organs, and SPECT quantification based on CT was then performed using VivoQuant (InviCRO, Boston, MA, USA). Results were expressed in %ID/cm^3 or %ID/g (percentage of injected dose per cubic centimeter or gram of tissue).

The nature of data set [2]: Stability of the radiolabeled compound in the medium. Type of data set: physicochemical. As to conditions: corn oil with 5% DMSO. The method, then: as §1
A further data set has as its system Toxoplasma gondii. Set-up: method as in PMID 20713670. The conditions noted are these: cited from earlier work.
The subject of the next data set is Toxoplasma. On the set-up: method as in PMID 22712598. The conditions noted are these: primary drug used to treat toxoplasmosis; cited from earlier work.

With `COc1cc(CC(=O)Nc2ccc(C(=O)NO)cc2)ccc1I` [iodo-JF363], the SPECT quantification amounted to 5.5 %DI/cm^3 in data set [1] (Bladder, infected mouse #2, 0.5 h pi); 19.1 %DI/cm^3 in data set [1] (Bladder, infected mouse #2, 3.5 h pi); 0.6 %DI/cm^3 in data set [1] (Bladder, infected mouse #2, 24 h pi); 6.4 %DI/cm^3 in data set [1] (Bladder, infected mouse #3, 0.5 h pi); 8.2 %DI/cm^3 in data set [1] (Bladder, infected mouse #3, 3.5 h pi); 3.9 %DI/cm^3 in data set [1] (Bladder, infected mouse #3, 24 h pi). The SPECT quantification stood at 3.1 %DI/cm^3 in data set [1] (Heart, infected mouse #2, 0.5 h pi); 2.1 %DI/cm^3 in data set [1] (Heart, infected mouse #2, 3.5 h pi); 0.2 %DI/cm^3 in data set [1] (Heart, infected mouse #2, 24 h pi); 1.0 %DI/cm^3 in data set [1] (Heart, infected mouse #3, 0.5 h pi); 1.0 %DI/cm^3 in data set [1] (Heart, infected mouse #3, 3.5 h pi); 0.2 %DI/cm^3 in data set [1] (Heart, infected mouse #3, 24 h pi). Moreover, the SPECT quantification is listed as 16.7 %DI/cm^3 in data set [1] (Intestine, infected mouse #2, 0.5 h pi); 13.8 %DI/cm^3 in data set [1] (Intestine, infected mouse #2, 3.5 h pi); 0.5 %DI/cm^3 in data set [1] (Intestine, infected mouse #2, 24 h pi); 3.8 %DI/cm^3 in data set [1] (Intestine, infected mouse #3, 0.5 h pi); 4.9 %DI/cm^3 in data set [1] (Intestine, infected mouse #3, 3.5 h pi); 1.5 %DI/cm^3 in data set [1] (Intestine, infected mouse #3, 24 h pi). The SPECT quantification in data set [1] (Lungs, infected mouse #2, 0.5 h pi) was determined as 1.8 %DI/cm^3; in data set [1] (Lungs, infected mouse #2, 3.5 h pi) it was 1.5 %DI/cm^3; in data set [1] (Lungs, infected mouse #2, 24 h pi) it was 0.1 %DI/cm^3; in data set [1] (Lungs, infected mouse #3, 0.5 h pi) it was 0.6 %DI/cm^3; in data set [1] (Lungs, infected mouse #3, 3.5 h pi), 0.5 %DI/cm^3; in data set [1] (Lungs, infected mouse #3, 24 h pi), 0.2 %DI/cm^3. Further, the SPECT quantification is listed as 10.0 %DI/cm^3 in data set [1] (Mouth, infected mouse #2, 0.5 h pi); 8.4 %DI/cm^3 in data set [1] (Mouth, infected mouse #2, 3.5 h pi); 4.7 %DI/cm^3 in data set [1] (Mouth, infected mouse #2, 24 h pi); 10.5 %DI/cm^3 in data set [1] (Mouth, infected mouse #3, 0.5 h pi); 6.8 %DI/cm^3 in data set [1] (Mouth, infected mouse #3, 3.5 h pi); 3.4 %DI/cm^3 in data set [1] (Mouth, infected mouse #3, 24 h pi). Further, the SPECT quantification was 8.5 %DI/cm^3 in data set [1] (Neck ganglia, infected mouse #2, 0.5 h pi); 9.5 %DI/cm^3 in data set [1] (Neck ganglia, infected mouse #2, 3.5 h pi); 1.3 %DI/cm^3 in data set [1] (Neck ganglia, infected mouse #2, 24 h pi); 4.0 %DI/cm^3 in data set [1] (Neck ganglia, infected mouse #3, 0.5 h pi); 5.0 %DI/cm^3 in data set [1] (Neck ganglia, infected mouse #3, 3.5 h pi); 1.1 %DI/cm^3 in data set [1] (Neck ganglia, infected mouse #3, 24 h pi). The SPECT quantification was 16.7 %DI/cm^3 in data set [1] (Salivary glands, infected mouse #2, 0.5 h pi); 37.6 %DI/cm^3 in data set [1] (Salivary glands, infected mouse #2, 3.5 h pi); 3.0 %DI/cm^3 in data set [1] (Salivary glands, infected mouse #2, 24 h pi); 8.1 %DI/cm^3 in data set [1] (Salivary glands, infected mouse #3, 0.5 h pi); 20.3 %DI/cm^3 in data set [1] (Salivary glands, infected mouse #3, 3.5 h pi); 3.3 %DI/cm^3 in data set [1] (Salivary glands, infected mouse #3, 24 h pi). For the same compound, the SPECT quantification was 12.1 %DI/cm^3 in data set [1] (Stomach, infected mouse #2, 0.5 h pi); 17.1 %DI/cm^3 in data set [1] (Stomach, infected mouse #2, 3.5 h pi); 4.2 %DI/cm^3 in data set [1] (Stomach, infected mouse #2, 24 h pi); 45.0 %DI/cm^3 in data set [1] (Stomach, infected mouse #3, 0.5 h pi); 42.7 %DI/cm^3 in data set [1] (Stomach, infected mouse #3, 3.5 h pi); 8.9 %DI/cm^3 in data set [1] (Stomach, infected mouse #3, 24 h pi). For the same compound, the SPECT quantification was 28.9 %DI/cm^3 in data set [1] (Thyroid, infected mouse #2, 0.5 h pi); 18.8 %DI/cm^3 in data set [1] (Thyroid, infected mouse #2, 3.5 h pi); 26.6 %DI/cm^3 in data set [1] (Thyroid, infected mouse #2, 24 h pi); 4.1 %DI/cm^3 in data set [1] (Thyroid, infected mouse #3, 0.5 h pi); 9.9 %DI/cm^3 in data set [1] (Thyroid, infected mouse #3, 3.5 h pi); 29.5 %DI/cm^3 in data set [1] (Thyroid, infected mouse #3, 24 h pi). The “SPECT activity in neck ganglia” value was ~ 1% in data set [1] (both infected mice, 24 h pi); 8.5 % ID/cm^3 in data set [1] (infected mouse #2, 30 min pi); 9.5 % ID/cm^3 in data set [1] (infected mouse #2, 3.5 h pi); 4 % ID/cm^3 in data set [1] (infected mouse #3, 30 min pi); 5 % ID/cm^3 in data set [1] (infected mouse #3, 3.5 h pi). Also, the route of elimination entry in data set [1] (oral gavage of the radiotracer, mice) is listed as “primarily through the urinary tract”. The “stability in the medium” value in data set [2] is “good up to 72 h”.

Turning to FR235222, the “efficiency on parasite proliferation and ex vivo cyst formation” value in the data set on Toxoplasma gondii is “efficient in vitro”.

In the case of `CCc1nc(N)nc(N)c1-c1ccc(Cl)cc1` [pyrimethamine], in the data set on Toxoplasma, the IC50 was 0.4 µM.

The term IC50 denotes the concentration needed to halve the response being measured.
